# According to patent US20020111314A1, “Novel stimulation of gene expression and protein synthesis of heat shock protein 72/73 (Hsp 70)” (The Trustees of Columbia University, priority 1995, published 2002):
# “Also recorded” adds a separate entry of the source. Square brackets hold non-standard residues; d marks the D form. Peptide text beside a SMILES is read from it. Nle = CCCC[C@H](N)C(=O)O
# Key:
# Hsp70 = Hsp70 induction in human microvascular endothelial cell line; assay type: cell-based; conditions: 4 hours ALLN 40 μg/ml, 30 min labeling with [3H]-leucine
# [1] = test system: human microvascular endothelial cell line; experiment: TCA-cpm measurement in human microvascular endothelial cell line; assay type: cell-based; conditions: 4 hours ALLN 40 μg/ml
# [2] = test system: Hsp90, Hsp60, Hsp25, Hsp27, Hsp86, Hsp104, Bip and albumin; experiment: Biosynthesis of other Hsp family members and related proteins in HepG2 cells (SDS-PAGE, immunoprecipitation); assay type: cell-based, human
# Procedure: FIGS. 2A-2B: Effects of ALLN on Hsp25, Hsp60, Hsp90 and Bip biosynthesis. HepG2 cells were pre-treated and radiolabeled with/without ALLN for 4 hours as described in FIG. 1. Cell lysates were denatured and aliquoted for immunoprecipitation with anti-Hsp25, anti-Hsp60, anti-Hsp90, or anti-Bip antibodies respectively (1 μg/ml). Because the anti-Hsp90 antibody is of rat source, rabbit anti-rat IgG antibody was added after the first incubation and the incubation was extended for another 1 hour at 4° C. before collection with protein A-Sepharose. Immunoprecipitates were aliquoted for scintillation counting and plotted. Each value is presented as means±SD from three individual experiments.
# FIGS. 7A-7B: Effects of ALLN on the biosynthesis of other members of Hsp family and related proteins. HepG2cells were pre-treated and radiolabeled with or without ALLN for 4 hours as described in FIG. 1. […]
# HepG2 cells were preincubated for 4 hours in serum-free MEM and then radiolabeled with ^3H-Leucine (150 μCi/ml) in a serum-free, leucine-free medium. […] Cell lysates containing equal amounts of trichloroacetic acid (TCA)-insoluble radioactivity were used for immunoprecipitations by incubating with individual monoclonal antibody (1 μg/ml) for 2.5 hours at 4° C. […]
# hsp70, i.e. hsp72, mRNA = experiment: Northern blot of hsp70 (hsp72) mRNA in HepG2 cells; assay type: cell-based, human; conditions: ALLN 40 μg/ml, 4 hours at 37° C.
# Procedure: After 4 hours treatment at 37° C., cells were harvested. (B). […] The total RNA was prepared, and equal amounts of the samples were loaded and run on a 1% formaldehyde-agarose gel, blotted onto a nylon membrane, and subsequently hybridized with specific synthetic oligonucleotide probes for hsp70 mRNA as described under Experimental Details. The position of 28S and 18S rRNA are shown for reference.
# Equal amounts of tRNA samples (10 μg) were size-fractionated on a 1% agarose-formaldehyde gel according to the methods described (Maniatis, et al., 1982) and transferred to a piece of QIAGEN plus nylon membrane. To determine loading and transfer efficiency, RNA was stained with ethidium bromide before and after transfer. The membrane was baked for 30 min. at 80° C. in vacuo (a vacuum) followed by UV cross-linking. It was then incubated for 4 hours at 65° C. in a prehybridization mixture containing 10% dextran sulfate, 1% SDS, 1M sodium chloride, 50 mM Tris-HCl (pH 7.5) and 100 μg/ml denatured salmon sperm DNA. […] The membrane was then washed four times with 2×SSC, 0.1% SDS at room temperature, one time at 65° C. for 30 min., and one time at room temperature again for 5 min., and finally rinsed with 2×SSC at room temperature.
# proteasomes = conditions: Rock, et al., 1994; cited from earlier work
smiles,measurement,setting,value
"CCCC[C@@H](C=O)NC(=O)[C@H](CC(C)C)NC(=O)[C@H](CC(C)C)NC(C)=O [ALLN, N-acetyl-leucyl-leucyl-norleucinal] (Ac-Leu-Leu-[Nle]-aldehyde)",increment of Hsp70 level,Hsp70,35 fold
same,TCA-cpm measurement,[1],no change
same,"effect on Hsp90, Hsp60, Hsp25, Hsp27, Hsp86, Hsp104, Bip or albumin levels",[2]; ALLN 4 hours,no effects; also recorded: only Hsp70 was induced
same,"level of a protein of about 80-90 kDa (whole-cell protein pattern, FIG. 2A)",[2]; ALLN-treated vs control,also increased but not as significantly as Hsp70
same,"amount of hsp70, i.e. hsp72, mRNA","hsp70, i.e. hsp72, mRNA",increased dramatically
same,inhibition of proteasomes,proteasomes,potent inhibitors
